Source: PubChem BioAssay (NCI)
Converted amounts (≈) assume the structure as drawn. “And” between values parts separate entries of the source, which are not always exact repeats. Identical values can stand only once.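 How tested: cells in 96-well plates exposed to compound for 48 hours at five concentrations. GI50 = concentration required for 50% inhibition of growth. Definition used: TGI = concentration required for complete inhibition of growth.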

Key:
Assay in all cases: inhibition of tumour cell growth, NCI panel, 48 h
SK-OV-3 ovarian = tested on: SK-OV-3 ovarian
MDA-MB-231 breast = tested on: MDA-MB-231 breast
K-562 leukemia = tested on: K-562 leukemia
PC-3 prostate = tested on: PC-3 prostate
HOP-62 NSCLC = tested on: HOP-62 NSCLC
DU-145 prostate = tested on: DU-145 prostate
HL-60(TB) leukemia = tested on: HL-60(TB) leukemia
UACC-257 melanoma = tested on: UACC-257 melanoma
A549 NSCLC = tested on: A549 NSCLC
CAKI-1 renal = tested on: CAKI-1 renal

In the case of `CC1(C)CC(=O)C2=C(C1)NC(SSC1=C(C#N)C(c3ccc(F)cc3)C3=C(CC(C)(C)CC3=O)N1)=C(C#N)C2c1ccc(F)cc1` (stereo not given), the GI50 (SK-OV-3 ovarian) was 15 µg/mL (≈ 22.9 µM), the TGI (SK-OV-3 ovarian) was 15 µg/mL and the GI50 (MDA-MB-231 breast) was 29 µg/mL. The TGI (MDA-MB-231 breast) was 51.7 µg/mL, the GI50 (K-562 leukemia) was 17.1 µg/mL and the TGI (K-562 leukemia) was > 150 µg/mL. It also gave a GI50 (PC-3 prostate) of 27.1 µg/mL, a TGI (PC-3 prostate) of 48 µg/mL and a GI50 (HOP-62 NSCLC) of 108 µg/mL (≈ 164 µM). For the same molecule, the TGI (HOP-62 NSCLC) was > 150 µg/mL, the GI50 (DU-145 prostate) was 15 µg/mL (≈ 22.9 µM) and the TGI (DU-145 prostate) was 15 µg/mL. The GI50 (HL-60(TB) leukemia) was 47.1 µg/mL, the TGI (HL-60(TB) leukemia) was > 150 µg/mL and the GI50 (UACC-257 melanoma) was 30.2 µg/mL (≈ 46.2 µM). For the same molecule, the TGI (UACC-257 melanoma) was 51.6 µg/mL, the GI50 (A549 NSCLC) was 15 µg/mL (≈ 22.9 µM) and the TGI (A549 NSCLC) was 15 µg/mL. The GI50 (CAKI-1 renal) was 29.5 µg/mL (≈ 45 µM) and the TGI (CAKI-1 renal) was 50.7 µg/mL.
`O=C(O)C(CSC(c1ccccc1)(c1ccccc1)c1ccccc1)N=Cc1cccs1` (stereo not given) was tested, and the TGI (SK-OV-3 ovarian) was > 67.5 µM, the TGI (MDA-MB-231 breast) was 7.01 µM and the TGI (K-562 leukemia) was > 100 µM. The TGI (PC-3 prostate) was > 42.4 µM, the TGI (HOP-62 NSCLC) was > 100 µM and the TGI (DU-145 prostate) was > 38.1 µM. For the same molecule, the TGI (HL-60(TB) leukemia) was 26.6 µM, the TGI (UACC-257 melanoma) was > 100 µM and the TGI (A549 NSCLC) was > 100 µM. The TGI (CAKI-1 renal) was > 54.7 µM.
In the case of `O=C(CCN1CC2CCC(CC2)C1)c1cccs1`, the TGI (SK-OV-3 ovarian) was > 53.4 µM, the TGI (MDA-MB-231 breast) was 34.4 µM and the TGI (K-562 leukemia) was 44 µM. It also gave a TGI (PC-3 prostate) of 31.1 µM, a TGI (HOP-62 NSCLC) of 45.5 µM and a TGI (DU-145 prostate) of 33.8 µM. For the same molecule, the TGI (HL-60(TB) leukemia) was 44.3 µM, the TGI (UACC-257 melanoma) was 30.4 µM and the TGI (A549 NSCLC) was > 57.6 µM. It also gave a TGI (CAKI-1 renal) of 34.5 µM.
`CCOC(=O)/C(=C\NCC(OCC)OCC)c1nc2ccccc2[nH]1` was tested, and the TGI (SK-OV-3 ovarian) was > 100 µM, the TGI (K-562 leukemia) was 81 µM and the TGI (PC-3 prostate) was 63.7 µM. For the same molecule, the TGI (HOP-62 NSCLC) was > 100 µM, the TGI (DU-145 prostate) was > 100 µM and the TGI (HL-60(TB) leukemia) was 52.3 µM. The TGI (UACC-257 melanoma) was 58.7 µM, the TGI (A549 NSCLC) was > 100 µM and the TGI (CAKI-1 renal) was > 100 µM.
With `CCOC(=O)C1CCn2c(nc3c2c(=O)n(C)c(=O)n3C)S1` (stereo not given) the TGI (SK-OV-3 ovarian) was > 100 µM, the TGI (K-562 leukemia) was > 100 µM and the TGI (HOP-62 NSCLC) was > 100 µM. The TGI (HL-60(TB) leukemia) was > 100 µM, the TGI (UACC-257 melanoma) was > 100 µM and the TGI (A549 NSCLC) was > 100 µM. For the same molecule, the TGI (CAKI-1 renal) was > 100 µM.
In the case of `O=CN1CCN(C(=O)c2cc(Cl)cc(Cl)c2)C1=S`, the TGI (SK-OV-3 ovarian) was 32.4 µM, the TGI (MDA-MB-231 breast) was 33.8 µM and the TGI (K-562 leukemia) was 97.5 µM. It also gave a TGI (PC-3 prostate) of 35.8 µM, a TGI (HOP-62 NSCLC) of 29.7 µM and a TGI (DU-145 prostate) of 37.5 µM. It also gave a TGI (HL-60(TB) leukemia) of 29.7 µM, a TGI (UACC-257 melanoma) of 32.3 µM and a TGI (A549 NSCLC) of 39.8 µM. For the same molecule, the TGI (CAKI-1 renal) was 26 µM.
In the case of `CC1=C2C(=O)OCC23C=COC3(C)O1` (stereo not given), the TGI (SK-OV-3 ovarian) was > 100 µM, the TGI (MDA-MB-231 breast) was > 100 µM and the TGI (K-562 leukemia) was > 100 µM. The TGI (PC-3 prostate) was > 100 µM, the TGI (HOP-62 NSCLC) was > 100 µM and the TGI (DU-145 prostate) was > 100 µM. For the same molecule, the TGI (UACC-257 melanoma) was > 100 µM, the TGI (A549 NSCLC) was > 100 µM and the TGI (CAKI-1 renal) was 68.8 µM.
`O=[N+]([O-])c1ccc2c(c1)c(N=NC(=S)NC1CCCCC1)c(O)n2CN1CCOCC1` was tested, and the TGI (SK-OV-3 ovarian) was 25.9 µM, the TGI (MDA-MB-231 breast) was 31.8 µM and the TGI (K-562 leukemia) was > 100 µM. For the same molecule, the TGI (PC-3 prostate) was 19 µM, the TGI (HOP-62 NSCLC) was 23.8 µM and the TGI (DU-145 prostate) was 26.8 µM. For the same molecule, the TGI (HL-60(TB) leukemia) was 17.2 µM, the TGI (UACC-257 melanoma) was 22.7 µM and the TGI (A549 NSCLC) was 15.7 µM. The TGI (CAKI-1 renal) was 14.3 µM.
`CS(=O)(=O)c1nc(-c2cc3c(c(S(C)(=O)=O)n2)CCCC3)cc2c1CCCC2` was tested, and the TGI (SK-OV-3 ovarian) was > 64.7 µM, the TGI (MDA-MB-231 breast) was > 100 µM and the TGI (K-562 leukemia) was > 100 µM. The TGI (PC-3 prostate) was > 100 µM, the TGI (HOP-62 NSCLC) was > 57.7 µM and the TGI (DU-145 prostate) was > 100 µM. For the same molecule, the TGI (HL-60(TB) leukemia) was > 100 µM, the TGI (UACC-257 melanoma) was > 100 µM and the TGI (A549 NSCLC) was > 100 µM. For the same molecule, the TGI (CAKI-1 renal) was > 59.1 µM.
`C/C(=N\NC(=O)c1cccnc1)c1cccc(/C(C)=N/NC(=O)c2cccnc2)n1` was tested, and the TGI (SK-OV-3 ovarian) was 82.4 µM, the GI50 (K-562 leukemia) was 3.04 µM and the TGI (K-562 leukemia) was > 100 µM. For the same molecule, the GI50 (HL-60(TB) leukemia) was 1.67 µM, the TGI (HL-60(TB) leukemia) was > 100 µM and the TGI (UACC-257 melanoma) was 35.4 µM. The TGI (A549 NSCLC) was 34.7 µM.
With `C=C1C[C@@H](O)[C@@H](Br)C(C)(C)[C@]12CCC(C)(Cl)C(Br)C2` (stereo not given in full) the TGI (SK-OV-3 ovarian) was > 100 µM, the TGI (MDA-MB-231 breast) was > 85.2 µM and the TGI (K-562 leukemia) was > 100 µM. For the same molecule, the TGI (PC-3 prostate) was 8.17 µM, the TGI (HOP-62 NSCLC) was > 65.2 µM and the TGI (DU-145 prostate) was > 100 µM. The TGI (HL-60(TB) leukemia) was 80.8 µM, the TGI (UACC-257 melanoma) was > 70.7 µM and the TGI (A549 NSCLC) was > 86 µM. The TGI (CAKI-1 renal) was > 90.4 µM.
With `Nc1ccccc1N/C(=C\C(=O)C(Cl)(Cl)Cl)c1ccccc1` the TGI (SK-OV-3 ovarian) was > 100 µM, the TGI (MDA-MB-231 breast) was 36.2 µM and the TGI (K-562 leukemia) was > 100 µM. The TGI (PC-3 prostate) was 68.8 µM, the TGI (HOP-62 NSCLC) was 75.1 µM and the TGI (DU-145 prostate) was > 100 µM. The TGI (HL-60(TB) leukemia) was 55.3 µM, the TGI (UACC-257 melanoma) was 79.1 µM and the TGI (A549 NSCLC) was > 100 µM. For the same molecule, the TGI (CAKI-1 renal) was > 100 µM.
`COc1ccc(N=C2C(=O)C3=C(OC(C)(C)CC3)c3ccccc32)cc1` gave a TGI (SK-OV-3 ovarian) of 4.4 µM, a TGI (MDA-MB-231 breast) of 5.44 µM and a TGI (K-562 leukemia) of 2.24 µM. The TGI (PC-3 prostate) was 5.49 µM, the TGI (HOP-62 NSCLC) was 1.89 µM and the TGI (DU-145 prostate) was 1.57 µM. It also gave a TGI (HL-60(TB) leukemia) of 4.38 µM, a TGI (UACC-257 melanoma) of 2.09 µM and a TGI (A549 NSCLC) of 1.94 µM. For the same molecule, the TGI (CAKI-1 renal) was 1.84 µM.
In the case of `Clc1ccc(Nc2nc(Cl)c3[nH]cnc3n2)cc1Cl`, the TGI (SK-OV-3 ovarian) was > 100 µM, the TGI (MDA-MB-231 breast) was 51.9 µM and the TGI (K-562 leukemia) was > 100 µM. For the same molecule, the TGI (PC-3 prostate) was 66.2 µM, the TGI (HOP-62 NSCLC) was 52.5 µM and the TGI (DU-145 prostate) was > 100 µM. The TGI (HL-60(TB) leukemia) was 47.7 µM, the TGI (UACC-257 melanoma) was 83.3 µM and the TGI (A549 NSCLC) was > 100 µM. For the same molecule, the TGI (CAKI-1 renal) was 16.6 µM.
For `[O-][N+](CCO)(CCO)c1ncnc2nc[nH]c12`, the TGI (SK-OV-3 ovarian) was > 100 µM, the TGI (MDA-MB-231 breast) was > 100 µM and the TGI (K-562 leukemia) was > 100 µM. The TGI (PC-3 prostate) was > 100 µM, the TGI (HOP-62 NSCLC) was > 100 µM and the TGI (DU-145 prostate) was > 100 µM. The TGI (UACC-257 melanoma) was > 100 µM, the TGI (A549 NSCLC) was > 100 µM and the TGI (CAKI-1 renal) was > 100 µM.
In the case of `CC[C@@]1(O)C(=O)OCc2c1cc1n(c2=O)Cc2c-1nc1ccc(O)cc1c2CC[Si](C)(C)C`, the GI50 (MDA-MB-231 breast) was 0.12 µM, the TGI (MDA-MB-231 breast) was 12.9 µM and the GI50 (PC-3 prostate) was 0.0525 µM. The TGI (PC-3 prostate) was > 100 µM, the TGI (HOP-62 NSCLC) was 0.0106 µM and the TGI (DU-145 prostate) was 0.00129 µM. For the same molecule, the TGI (HL-60(TB) leukemia) was < 0.001 µM, the TGI (UACC-257 melanoma) was 0.136 µM and 0.0447 µM and the TGI (A549 NSCLC) was 0.24 µM and 0.167 µM.
For `O=S1(=O)OC(c2ccc(O)cc2)(c2ccc(O)cc2)c2ccccc21`, the TGI (SK-OV-3 ovarian) was > 100 µM, the TGI (MDA-MB-231 breast) was > 100 µM and the TGI (K-562 leukemia) was > 100 µM. For the same molecule, the TGI (PC-3 prostate) was > 100 µM, the TGI (HOP-62 NSCLC) was > 100 µM and the TGI (DU-145 prostate) was > 100 µM. For the same molecule, the TGI (HL-60(TB) leukemia) was > 100 µM, the TGI (UACC-257 melanoma) was > 100 µM and the TGI (A549 NSCLC) was > 100 µM. For the same molecule, the TGI (CAKI-1 renal) was > 100 µM.
